The text below walks through data of patent US4166852A, “Piperazino-pyrimidines and their use as spasmolytic agents” (priority 1974, dated 1979).

The nature of data set [1]: acute toxicity, LD 50, CD 1 mice. In kind it is in vivo. Particulars: mouse, in vivo. The source says:
The acute toxicities of the compounds according to the invention have been determined on CD 1 (Charles RIVER) mice by intravenous and oral methods. The LD 50 of each compound has been calculated by the cumulative method of J. J. Reed and H. Muench, (Amer. J. Hyg., 1938, 27, 493).

The subject of data set [2] is dogs. Description: anti-emetic activity, apomorphine vomiting test on dogs. Type of data set: in vivo. Particulars: Canis lupus familiaris, po, read-out: Anti-emetic activity on dogs ED 50. From the text: The anti-emetic properties of the compounds according to the invention have been shown by oral administration of apomorphine to dogs in the vomiting test according to G. Chen and C. J. Ensor, Pharmacol. exp. Therap., 98, 24 (1950).

Data set [3] deals with mice. Kind of data set: analgesic activity, painful abdominal torsions test with phenylbenzoquinone. In kind it is in vivo, CD 1 (Charles RIVER) mice. Particulars: Mus musculus, po; mice, orally; read-out: Phenylbenzoquinone test on mice AD 50. From the text:
The analgesic properties of the products according to the invention have been shown with CD 1 (Charles RIVER) mice in the painful abdominal torsions test with phenylbenzoquinone according to the technique of E. Siegmund, R. Cadmus and Go.Lu--Proc. Soc. Exp. Biol. Med., 95, 729, (1957).

The subject of data set [4] is isolated duodenum of the rabbit (acetylcholine). Description: spasmolytic effect on isolated duodenum, acetylcholine spasm. In kind it is cell-based. Particulars: Oryctolagus cuniculus, read-out: Spasmolytic effects EC 50 with respect to acetylcholine. From the text:
(§1) Ges. Physiol., 102, 123, (1904) with respect to the spasms of the isolated duodenum of rabbits caused either by acetylchlorine for the spasmolytic nemotropes or by barium chloride for the spasmolytic musculotropes.

For data set [5], the system named is isolated duodenum of the rabbit (barium chloride). Description: spasmolytic effect on isolated duodenum, barium chloride spasm. Particulars: Oryctolagus cuniculus, read-out: Spasmolytic effects EC 50 with respect to barium chloride. In kind it is cell-based.
Description: as §1

Data set [6] concerns head twitch. Description: anti-serotonine activity, head twitch. Type of data set: in vivo, CD 1 (Charles RIVER) mice. Particulars: Mus musculus, po; mice, orally; read-out: "Head-twitch" AD 50. The source says:
(§2) The anti-serotonine activities of the compounds according to the invention have been shown by oral administration to the CD (Charles RIVER) rats using the technique of the serotonine plantar oedema (W. Theobald and R. Domenjoz--Arzneimittel Forsch, 8, 18, 1958 and with the CD 1 (Charles RIVER) mice using the technique known as "head twitch" according to S. J. Corne, R. W. Pickering and B. T. Warner, Brit. J. Pharmacol., 20, 106, (1963). The anti-serotonine activity has also been determined on the one hand on the tricoloured guinea-pig, given intravenously, according to a method derived from H. Konzet and R. Rossler, Arch. exp. Pathol, Pharmakol., 195, 71, (1940) and on the other hand in vitro with respect to the serotonine spasm of the isolated uterus of the rat according to the technique of A. Fanchamps, W. Doepfener, H. Weidman and A. Cerletti, Schw. Med. Worsch, 90, 1940, (1960).

Data set [7] concerns serotonine plantar oedema. Kind of data set: anti-serotonine activity, serotonine plantar oedema. Type of data set: in vivo, CD (Charles RIVER) rats. Particulars: po; rat, orally; read-out: Serotonine plantar oedema AD 50.
Description: as §2

Data set [8] deals with serotonine bronchospasms. Description: anti-serotonine activity, serotonine bronchospasms. In kind it is in vivo, tricoloured guinea-pig. Particulars: Cavia porcellus, iv; guinea pig, intravenously; read-out: Serotonine bronchospasms ED 50.
Description: as §2

For data set [9], the system named is mouse. Kind of data set: spontaneous motility test (hypomotility), mouse. Particulars: po, 1 h, orally, 60 minutes before measuring, 50% reduction of mean motility, first 5 minutes, read-out: Hypomotility ED 50. In kind it is in vivo, mice. From the text: The neuroloptic effects of the compounds according to the invention have been shown with respect to the CD rat (Charles RIVER) taken orally in the catalepsy test according to S. COURVOISIER, R. DUCROT, and L. JULOU, in Psychotropic Drugs, S. GARATTINI and V. GHETTI, Edit.--ELSEVIER Publ. Co., AMSTERDAM, LONDON, NEW YORK, PRINCETON, 1957 P. 373 and also in the traction test of CD1 (Charles RIVER) mice taken orally S. COURVOISIER, Quart. Rev. Psychiat. Neurol. 17, 25 (1956), on the one hand and also in the spontaneous motility test.
This latter technique comprises keeping an account of the displacements of the mice by means of a floor of metal strips which enables the spontaneous activity of the animals to be recorded during the first 5 minutes subsequent to their being introduced into the measuring chamber. The products are dispensed 60 minutes before measuring is effected and 10 mice are used per dose. The results are expressed in ED 50 which represents the dose of substance capable of reducing the mean motility of the treated animals by 50% relative to that of the sample group which has only received the dispensing carrier.

A short description of data set [10]: solubility. In kind it is physicochemical.
The mark [11] stands for this setting: intravenous, read-out: Acute toxicity for mice LD 50, intravenous.
The mark [12] stands for this setting: oral, read-out: Acute toxicity for mice LD 50, orally.

In brackets after ≈: the same amount, converted by molar mass. Structures can show the parent of a compound that is named as a salt. Where two headings read alike, the source gives them in different places. Bounds are passed on as bounds.

As to `CSc1c(Cl)nc(NC(C)C)nc1N1CCN(C)CC1` [Example 2, 2-Isopropylamino-4-N-methyl-piperazino-6-chloro-5-methylthio-pyrimidine], the LD50 in data set [1] (setting [11]) is 79 mg/kg; in data set [1] (setting [12]), approximately 525 mg/kg. The ED50 in [2] (dogs, orally, apomorphine) worked out at 0.12 mg/kg; in data set [3], 65 mg/kg. Also, the EC50 in [4] turned out to be 5 µg/mL (≈ 15.8 µM); in data set [5] it was 1.2 µg/mL (≈ 3.8 µM).

Take `CSc1c(Cl)nc(NC(C)(C)C)nc1N1CCN(C)CC1` [Example 3, 2-t-butylamino-4-N-methylpiperazino-5-methylthio-6-chloro-pyrimidine]: the LD50 is 67 mg/kg in data set [1] (setting [11]) and approximately 600 mg/kg in [1] (setting [12]). Besides, the ED50 in [6] amounted to 300 mg/kg. The EC50 stood at 2.5 µg/mL (≈ 7.58 µM) in data set [4] and 0.5 µg/mL (≈ 1.52 µM) in [5].

Consider `CNc1nc(Cl)c(SC)c(N2CCN(c3ccccc3)CC2)n1` [Example 7, 4-N-phenylpiperazino-2-methylamino-6-chloro-5-methylthio-pyrimidine], for which the ED50 in data set [6] turned out to be 400 mg/kg.

On to `CNc1nc(Cl)c(SC)c(N2CCN(CCO)CC2)n1` [Example 8, 2-Methylamino-4-N-(β-hydroxyethyl)-piperazino-6-chloro-5-methylthio-pyrimidine], for which the results for the LD50 in data set [1] (setting [11]) and in data set [1] (setting [12]) were 124 mg/kg and approximately 525 mg/kg, respectively. In data set [2] (dogs, orally, apomorphine), the ED50 was 0.25 mg/kg. Besides, the EC50 in data set [4] turned out to be 5 µg/mL (≈ 15.7 µM); in data set [5], 1.3 µg/mL (≈ 4.09 µM).

Take `CSc1c(Cl)nc(N2CCN(C)CC2)nc1N1CCN(C)CC1` [Example 9, Bis-2,4-(N-methylpiperazino)-6-chloro-5-methylthio-pyrimidine hydrochloride]: the figures for the LD50 in [1] (setting [11]) and in [1] (setting [12]) were 83 mg/kg and approximately 675 mg/kg, respectively. The values for the ED50 in [3] and in [6] were 150 mg/kg and 300 mg/kg, respectively. The figures for the EC50 in [4] and in data set [5] were more than 10 µg/mL and 3.6 µg/mL, respectively.

As for `CSc1c(Cl)nc(N2CCCCC2)nc1N1CCN(C)CC1` [Example 11, 2-Piperidino-4-methylpiperazino-5-methylthio-6-chloro-pyrimidine hydrochloride], the LD50 in data set [1] (setting [11]) was 115 mg/kg; in [1] (setting [12]), approximately 525 mg/kg. Besides, the figures for the EC50 in [4] and in [5] were 2.5 µg/mL and 2.2 µg/mL, respectively.

On to `CSc1c(Cl)nc(N(C)c2ccccc2)nc1N1CCN(C)CC1` [Example 12, 2-(N-methyl-N-phenyl)amino-4-N-methylpiperazino-5-methylthio-6-chloro-pyrimidine hydrochloride], for which the LD50 in data set [1] (setting [11]) is 113 mg/kg; in data set [1] (setting [12]), approximately 525 mg/kg. The ED50 in data set [3] came out at 100 mg/kg. For the same molecule, the EC50 in data set [4] is 3 µg/mL; in data set [5], 2.2 µg/mL.

For `CSc1c(Cl)nc(N(C)C(=O)c2ccccc2)nc1N1CCN(C)CC1` [Example 13, 2-(N-methyl-N-benzoyl)amino-4-N-methyl-piperazino-6-chloro-5-methylthio-pyrimidine hydrochloride], the LD50 in [1] (setting [11]) is 91 mg/kg; in data set [1] (setting [12]), approximately 600 mg/kg. Moreover, the ED50 in [2] (dogs, orally, apomorphine) was 1.9 mg/kg; in [7], more than 300 mg/kg; in [6], 300 mg/kg. Further, the EC50 in data set [4] was 4 µg/mL; in [5], 2.6 µg/mL.

In the case of `CCN(CC)c1nc(Cl)c(SC)c(N2CCN(C)CC2)n1` [Example 15, 2-N-diethylamino-4-N-methylpiperazino-5-methylthio-6-chloro-pyrimidine dihydrobromide], the figures for the LD50 in data set [1] (setting [11]) and in [1] (setting [12]) were 123 mg/kg and approximately 600 mg/kg, respectively. Also, the ED50 in [3] is 300 mg/kg. The figures for the EC50 in [4] and in data set [5] were 5 µg/mL and 4 µg/mL, respectively.

Take `CNc1nc(OC)c(SC)c(N2CCN(C)CC2)n1` [Example 17, 2-Methylamino-4-N-methylpiperazino-5-methyl-thio-6-methoxy-pyrimidine hydrochloride]: the LD50 in data set [1] (setting [11]) is 58 mg/kg; in data set [1] (setting [12]), approximately 400 mg/kg. Also, the figures for the ED50 in data set [2], in data set [7] and in data set [8] were 1.4 mg/kg, 100 mg/kg and 3 mg/kg, respectively.

Regarding `CCCOc1nc(NC)nc(N2CCN(C)CC2)c1SC` [Example 18, 2-Methylamino-4-N-methylpiperazino-5-methylthio-6-propoxy-pyrimidine hydrochloride], the figures for the LD50 in [1] (setting [11]) and in data set [1] (setting [12]) were 63 mg/kg and approximately 525 mg/kg, respectively. Besides, the ED50 in data set [2] (dogs, orally, apomorphine) turned out to be 3.9 mg/kg. The EC50 in [4] was more than 5 µg/mL; in data set [5] it was 2.1 µg/mL.

Turning to `C=CCOc1nc(NC)nc(N2CCN(C)CC2)c1SC` [Example 19, 2-methylamino-4-N-methylpiperazino-5-methylthio-6-allyloxy-pyrimidine hydrochloride], the values for the LD50 in [1] (setting [11]) and in [1] (setting [12]) were 56 mg/kg and approximately 400 mg/kg, respectively. The ED50 in data set [2] (dogs, orally, apomorphine) was 1.5 mg/kg; in data set [3] it was 100 mg/kg; in [7], more than 100 mg/kg. Further, the EC50 in data set [4] was more than 5 µg/mL; in data set [5], 3.1 µg/mL.

For `CSc1c(Cl)nc(NCCO)nc1N1CCN(C)CC1` [Example 22, 2-N-(β-hydroxyethyl)amino-4-N-methylpiperazino-6-chloro-5-methylthiopyrimidine], the LD50 in [1] (setting [11]) is 89 mg/kg; in [1] (setting [12]) it was approximately 600 mg/kg. Also, the ED50 was 0.85 mg/kg in data set [2] (dogs, orally, apomorphine); 100 mg/kg in [9]; more than 100 mg/kg in data set [3]; more than 100 mg/kg in [6]; 0.16 mg/kg in data set [8]. The EC50 in data set [4] and in data set [5] was more than 10 µg/mL each time. Further, the “solubility in dilute hydrochloric acid” value in [10] is on record as “soluble”. Besides, in data set [10], the “solubility in ethanol (alcohol)” value is listed as “soluble”. Besides, the solubility in water result in data set [10] was “insoluble”.

Regarding `CSc1c(Cl)nc(N2CCOCC2)nc1N1CCN(C)CC1` [Example 28, 2-Morpholino-4-N-methylpiperazino-6-chloro-5-methylthiopyrimidine], the LD50 in [1] (setting [11]) was 110 mg/kg; in data set [1] (setting [12]), approximately 400 mg/kg. For the same molecule, the ED50 was more than 5 mg/kg in [2] (dogs, orally, apomorphine); 100 mg/kg in [9]; more than 100 mg/kg in data set [3]; more than 100 mg/kg in data set [7]; 70 mg/kg in [6]; more than 0.1 mg/kg in [8]. Also, the figures for the EC50 in data set [4] and in data set [5] were 4.5 µg/mL (≈ 13.1 µM) and 1.7 µg/mL (≈ 4.94 µM), respectively. In addition, the “solubility in dilute hydrochloric acid” value in data set [10] was “soluble”. In addition, the “solubility in ethanol (alcohol)” value in data set [10] is reported as “soluble”. In addition, the solubility in water entry in data set [10] is “insoluble”.

On to `COc1ccc(Nc2nc(Cl)c(SC)c(N3CCN(C)CC3)n2)cc1` [Example 32, 4'-methoxy-2-phenylamino-4-N-methylpiperazino-6-chloro-5-methylthiopyrimidine], for which the LD50 in data set [1] (setting [11]) is 83 mg/kg; in data set [1] (setting [12]), approximately 495 mg/kg. The ED50 was 60 mg/kg in [9], more than 35 mg/kg in data set [3], 27 mg/kg in data set [6] and 0.9 mg/kg in data set [8]. The EC50 in data set [4] is 5.5 µg/mL (≈ 14.5 µM). Also, in data set [10], the “solubility in dilute hydrochloric acid” value was “soluble”. Also, the solubility in water result in data set [10] is “insoluble”.
